Consider 20 compounds from patent publication US10544143B2, “4-azaindole compounds” (BRISTOL-MYERS SQUIBB COMPANY, priority 2017, dated 2020).

In one assay the target is human TLR9 (Homo sapiens (Human), UniProt Q9NR96). As to the kind of experiment: TLR9 inhibition reporter assay (HEK-Blue SEAP).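 Also: SEAP driven by an IFN-β minimal promoter with NF-κB and AP-1 sites, read after 22 h, compounds dosed 0.05 nM–50 µM, inhibition scaled between agonist plus DMSO and reference-inhibitor wells.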 The note with it: read-out: TLR9 IC50.
For another assay, the target named is human TLR8 (Homo sapiens (Human), UniProt Q9NR97). In words: TLR8 inhibition reporter assay (HEK-Blue SEAP).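 Also: SEAP driven by IFN-β minimal promoter carrying NF-κB and AP-1 sites, compounds dosed 0.05 nM to 50 µM for 22 h, inhibition scaled between agonist-plus-DMSO and reference-inhibitor wells.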 To be noted: read-out: TLR8 IC50.
The target of the next assay is human TLR7 (Homo sapiens (Human), UniProt Q9NYK1). In words: TLR7 inhibition reporter assay (HEK-Blue SEAP). The class given is cell-based.
Setting [1] is: HEK-Blue cells overexpressing human TLR9, ODN2006 5 nM stimulation, SEAP reporter.
The mark [2] stands for this setting: HEK-Blue cells overexpressing human TLR8, R848 15.9 μM stimulation, SEAP reporter.
Where [3] appears, read: HEK-Blue cells overexpressing human TLR8, SEAP reporter, R848 15.9 μM.
Setting [4] is: HEK-Blue cells overexpressing human TLR7, gardiquimod 7.5 μM stimulation, SEAP reporter.
[5] abbreviates: HEK-Blue cells overexpressing human TLR9, SEAP reporter, ODN2006 5 nM.
The mark [6] stands for this setting: HEK-Blue human TLR9 cells, ODN2006 5 nM.
The mark [7] stands for this setting: HEK-Blue human TLR8 cells, R848 15.9 μM.

Where two headings read alike, the source gives them in different places.

Sequence of human TLR7 (Q9NYK1 27-1049): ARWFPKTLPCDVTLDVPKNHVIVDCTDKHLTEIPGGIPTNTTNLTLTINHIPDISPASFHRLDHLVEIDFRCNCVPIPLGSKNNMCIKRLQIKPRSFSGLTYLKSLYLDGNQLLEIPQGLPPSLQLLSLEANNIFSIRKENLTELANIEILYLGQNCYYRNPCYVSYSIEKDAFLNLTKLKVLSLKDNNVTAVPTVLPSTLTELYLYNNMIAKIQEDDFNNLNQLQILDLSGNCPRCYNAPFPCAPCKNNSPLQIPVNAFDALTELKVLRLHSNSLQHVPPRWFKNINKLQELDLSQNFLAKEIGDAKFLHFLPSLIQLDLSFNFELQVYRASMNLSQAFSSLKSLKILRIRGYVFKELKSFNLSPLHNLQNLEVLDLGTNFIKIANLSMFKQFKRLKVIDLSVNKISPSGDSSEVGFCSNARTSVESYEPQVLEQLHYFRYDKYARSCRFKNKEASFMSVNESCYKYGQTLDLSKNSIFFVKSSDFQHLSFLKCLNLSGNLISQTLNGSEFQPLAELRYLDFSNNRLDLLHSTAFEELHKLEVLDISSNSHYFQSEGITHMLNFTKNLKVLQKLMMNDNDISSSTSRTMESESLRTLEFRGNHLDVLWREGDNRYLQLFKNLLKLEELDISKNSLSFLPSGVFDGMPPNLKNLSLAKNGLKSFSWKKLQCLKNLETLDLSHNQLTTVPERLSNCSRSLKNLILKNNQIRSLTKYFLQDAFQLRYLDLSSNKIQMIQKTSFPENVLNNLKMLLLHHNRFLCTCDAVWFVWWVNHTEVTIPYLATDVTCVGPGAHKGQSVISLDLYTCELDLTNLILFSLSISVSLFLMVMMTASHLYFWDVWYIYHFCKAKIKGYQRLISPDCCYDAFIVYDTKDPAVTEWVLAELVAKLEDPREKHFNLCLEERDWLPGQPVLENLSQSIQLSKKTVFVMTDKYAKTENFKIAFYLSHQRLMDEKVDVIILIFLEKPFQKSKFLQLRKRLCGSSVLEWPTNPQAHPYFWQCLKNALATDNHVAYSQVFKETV
Sequence of human TLR9 (Q9NR96 26-1032): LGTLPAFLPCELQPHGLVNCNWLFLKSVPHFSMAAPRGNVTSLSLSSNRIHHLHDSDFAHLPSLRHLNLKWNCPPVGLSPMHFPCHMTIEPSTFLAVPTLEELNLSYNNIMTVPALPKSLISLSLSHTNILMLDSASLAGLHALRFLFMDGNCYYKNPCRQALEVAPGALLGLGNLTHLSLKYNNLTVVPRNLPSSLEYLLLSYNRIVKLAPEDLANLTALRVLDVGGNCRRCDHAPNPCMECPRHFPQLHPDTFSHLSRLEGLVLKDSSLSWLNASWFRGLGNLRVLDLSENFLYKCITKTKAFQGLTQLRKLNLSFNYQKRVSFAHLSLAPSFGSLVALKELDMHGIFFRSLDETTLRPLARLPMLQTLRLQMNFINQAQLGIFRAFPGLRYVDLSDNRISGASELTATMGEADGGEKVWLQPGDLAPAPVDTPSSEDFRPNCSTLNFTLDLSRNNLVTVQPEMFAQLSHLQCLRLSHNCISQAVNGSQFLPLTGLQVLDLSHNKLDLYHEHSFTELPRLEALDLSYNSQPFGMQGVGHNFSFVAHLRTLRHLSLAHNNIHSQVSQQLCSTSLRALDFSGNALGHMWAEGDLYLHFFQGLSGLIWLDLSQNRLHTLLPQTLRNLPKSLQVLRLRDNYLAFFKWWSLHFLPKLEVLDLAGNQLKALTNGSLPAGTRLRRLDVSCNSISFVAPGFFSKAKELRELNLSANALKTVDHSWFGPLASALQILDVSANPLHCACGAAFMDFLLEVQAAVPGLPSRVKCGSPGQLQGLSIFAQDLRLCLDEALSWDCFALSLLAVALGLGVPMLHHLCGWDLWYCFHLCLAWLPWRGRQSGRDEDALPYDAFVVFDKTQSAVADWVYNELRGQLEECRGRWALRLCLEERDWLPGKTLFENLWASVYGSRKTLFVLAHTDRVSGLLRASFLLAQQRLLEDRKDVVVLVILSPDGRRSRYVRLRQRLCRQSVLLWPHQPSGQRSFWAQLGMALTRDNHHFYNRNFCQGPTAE
Sequence of human TLR8 (Q9NR97 27-1041): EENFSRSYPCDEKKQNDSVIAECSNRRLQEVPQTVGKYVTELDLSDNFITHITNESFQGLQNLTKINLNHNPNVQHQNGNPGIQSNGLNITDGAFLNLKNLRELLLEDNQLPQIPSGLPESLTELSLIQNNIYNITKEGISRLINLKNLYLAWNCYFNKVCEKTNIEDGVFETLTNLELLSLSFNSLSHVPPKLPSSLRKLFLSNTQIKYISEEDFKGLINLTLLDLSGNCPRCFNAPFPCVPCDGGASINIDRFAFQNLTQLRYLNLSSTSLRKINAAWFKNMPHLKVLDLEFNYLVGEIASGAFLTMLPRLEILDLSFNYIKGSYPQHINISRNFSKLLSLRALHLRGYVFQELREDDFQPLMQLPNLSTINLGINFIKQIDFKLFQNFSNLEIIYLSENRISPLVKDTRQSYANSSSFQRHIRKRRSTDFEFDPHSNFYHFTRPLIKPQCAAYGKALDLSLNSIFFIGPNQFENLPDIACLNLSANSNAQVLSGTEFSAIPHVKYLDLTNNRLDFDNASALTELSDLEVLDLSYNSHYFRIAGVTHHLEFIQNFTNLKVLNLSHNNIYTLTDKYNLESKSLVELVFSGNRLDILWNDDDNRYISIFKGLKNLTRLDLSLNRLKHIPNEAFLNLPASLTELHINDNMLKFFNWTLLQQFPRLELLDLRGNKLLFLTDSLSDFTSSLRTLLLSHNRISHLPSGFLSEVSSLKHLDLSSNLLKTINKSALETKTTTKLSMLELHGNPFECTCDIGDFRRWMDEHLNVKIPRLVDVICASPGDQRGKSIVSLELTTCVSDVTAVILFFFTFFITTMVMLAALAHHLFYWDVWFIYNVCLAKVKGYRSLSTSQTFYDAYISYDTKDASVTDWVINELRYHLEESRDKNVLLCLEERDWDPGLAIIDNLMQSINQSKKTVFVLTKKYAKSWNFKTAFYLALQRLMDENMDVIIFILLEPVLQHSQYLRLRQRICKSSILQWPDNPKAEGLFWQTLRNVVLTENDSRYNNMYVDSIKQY

On to `Cc1cnc(CNC2CCC(c3ccc4[nH]c(-c5cc(CO)c6ncnn6c5)c(C(C)C)c4n3)CC2)cn1` (stereo not shown) [Example 217], for which the results for the IC50 on human TLR9 (setting [1]) and at human TLR8 (setting [2]) were 522 nM and 8.6 nM, respectively.
Taken in the same sequence, the figures for `CC(C)c1c(-c2cc(CO)c3ncnn3c2)[nH]c2ccc(C3CCC(NCC(=O)N(C)C)CC3)nc12` (stereo not shown) [Example 222] were 657 nM and 21 nM.
As to `Cc1c(-c2[nH]c3ccc(C4CCC(N5CCN(C)C(=O)C5)CC4)nc3c2C(C)C)cn2ncnc2c1C` (stereo not shown) [Example 443], the IC50 amounted to 57 nM on human TLR8 (setting [3]) and 15 nM against human TLR7 (HEK-Blue cells overexpressing human TLR7, SEAP reporter, gardiquimod 7.5 μM).
Consider `Cc1c(-c2[nH]c3ccc(N4CC(N5CCOCC5)C4)nc3c2C(C)C)cn2ncnc2c1C` [Example 39, 4-(1-(2-(7,8-dimethyl-[1,2,4]triazolo[1,5-a]pyridin-6-yl)-3-isopropyl-1H-pyrrolo[3,2-b]pyridin-5-yl)azetidin-3-yl)morpholine], for which the figures for the IC50 on human TLR8 (setting [2]) and at human TLR7 (setting [4]) were 4.8 nM and 40 nM, respectively.
With `COCCNC1CCC(c2nc3c(C(C)C)c(-c4cc(OC)c5ncnn5c4)[nH]c3cc2C)CC1` (stereo not shown) [Example 335], the IC50 at human TLR9 (setting [1]) was determined as 1930 nM; on human TLR8 (setting [2]), 4 nM.
`Cc1c(-c2[nH]c3ccc(C4CCC(N5CC(C#N)C5)CC4)nc3c2C(C)C)cn2ncnc2c1C` (stereo not shown) [Example 436]: the IC50 is 8940 nM on human TLR9 (setting [5]) and 27 nM at human TLR8 (setting [3]).
With `CC(C)c1c(-c2cc(CO)c3ncnn3c2)[nH]c2ccc(C3CCC(NCC(=O)N(C)C)CC3)nc12` (stereo not shown) [Example 216], the results for the IC50 at human TLR9 (setting [1]) and at human TLR8 (setting [2]) were 416 nM and 18 nM, respectively.
Regarding `Cc1c(-c2[nH]c3ccc(C4CCC(N(C)Cc5ncccn5)CC4)nc3c2C(C)C)cn2ncnc2c1C` (stereo not shown) [Example 417], the IC50 was determined as 9500 nM at human TLR9 (setting [5]) and 7.1 nM on human TLR8 (setting [3]).
With `Cc1c(-c2[nH]c3ccc(N4CCN(C(=O)CN5CC6(CCO6)C5)CC4)nc3c2C(C)C)cn2ncnc2c1C` [Example 918], the values for the IC50 at human TLR9 (setting [6]) and at human TLR8 (setting [7]) were 20600 nM and 6.3 nM, respectively.
Regarding `Cc1c(-c2[nH]c3ccc(N4C[C@H]5C[C@@H](C4)N5C(=O)CN(C)C)nc3c2C(C)C)cn2ncnc2c1C` [Example 754], the IC50 on human TLR9 (setting [5]) worked out at 5430 nM; on human TLR8 (setting [3]), 1.7 nM.
Consider `COc1cc(-c2[nH]c3ccc(N4CCN(C5CCOC5)CC4)nc3c2C(C)C)cn2ncnc12` (stereo not shown) [Example 103], for which the half-maximal inhibitory concentration (IC50) came to 2.6 nM on human TLR8 (setting [2]) and 7.3 nM on human TLR7 (setting [4]).
Take `Cc1c(-c2[nH]c3ccc(N4C[C@H]5C[C@@H](C4)N5C(C)C)nc3c2C(C)C)cn2ncnc2c1C` [Example 755]: the IC50 was 3730 nM at human TLR9 (setting [5]) and 6.2 nM at human TLR8 (setting [3]).
In the case of `COc1cc(-c2[nH]c3ccc(C4CCC(NCC5(S(C)(=O)=O)CC5)CC4)nc3c2C(C)C)cn2ncnc12` (stereo not shown) [Example 223], the IC50 on human TLR9 (setting [1]) turned out to be 485 nM; on human TLR8 (setting [2]) it was 1.4 nM.
Consider `Cc1c(-c2[nH]c3ccc(N4CCN(C(=O)CN5CCC(F)C5)CC4)nc3c2C(C)C)cn2ncnc2c1C` (stereo not shown) [Example 917], for which the IC50 at human TLR9 (setting [6]) turned out to be 43200 nM; at human TLR8 (setting [7]) it was 2.9 nM.
Turning to `CC(C)c1c(-c2cn(C)c3ncccc23)[nH]c2ccc(N3CCC(N(CC#N)CC#N)CC3)nc12` [Example 52], the IC50 stood at 20 nM at human TLR8 (setting [2]) and 7.9 nM against human TLR7 (setting [4]).
As to `Cc1c(-c2[nH]c3ccc(C4CCC(N5CC6(COC6)C5)CC4)nc3c2C(C)C)cn2ncnc2c1C` (stereo not shown) [Example 437], the IC50 came out at 3750 nM at human TLR9 (setting [5]) and 11 nM at human TLR8 (setting [3]).
Take `COc1cc(-c2[nH]c3cc(C)c(C4CCC(NCC(C)(C)O)CC4)nc3c2C(C)C)cn2ncnc12` (stereo not shown) [Example 321]: the IC50 at human TLR9 (setting [1]) worked out at 1040 nM; on human TLR8 (setting [2]), 3 nM.
`Cc1cc(-c2[nH]c3ccc(C4CCN(C5COC5)CC4)nc3c2C(C)C)cn(C)c1=O` [Example 528]: the values for the IC50 on human TLR9 (setting [5]) and at human TLR8 (setting [3]) were 5700 nM and 23 nM, respectively.
With `Cc1c(-c2[nH]c3ccc(C4CCC(N5CC6(COC6)C5)CC4)nc3c2C(C)C)cn2ncnc2c1C` (stereo not shown) [Example 435], the IC50 at human TLR9 (setting [5]) was found to be 2180 nM; at human TLR8 (setting [3]) it was 5.5 nM.
For `Cc1c(-c2[nH]c3ccc(C4CCC(N(C)Cc5ncccn5)CC4)nc3c2C(C)C)cn2ncnc2c1C` (stereo not shown) [Example 418], the IC50 was determined as 2860 nM on human TLR9 (setting [5]) and 3.9 nM on human TLR8 (setting [3]).
